Laboratory results as given in US10738028B2, “Spiro three-membered ring, spiro five-membered ring peptide deformylase inhibitor and use thereof in antibacteria and anti-tumor” (priority 2016, dated 2020).

Assays:
Assay type in all cases: cell-based
[1] = tested on: Escherichia coli (including ESBLs, non-ESBLs); assay: MIC, two-fold agar dilution (CLSI), clinical isolates
How it was run: (§1)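 Samples are serially diluted two-fold in agar following CLSI guidance. Plates are then inoculated with the tested strains. The lowest inhibiting concentration is recorded as MIC.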

[2] = tested on: Enterococcus faecium (EFM); assay: as above
How it was run: as §1

[3] = tested on: methicillin-sensitive Staphylococcus epidermidis (MSSE); assay: as above
How it was run: as §1

[4] = tested on: methicillin-resistant Staphylococcus epidermidis (MRSE); assay: as above
How it was run: as §1

[5] = tested on: Enterococcus faecalis (EFA); assay: as above
How it was run: as §1

[6] = tested on: methicillin-resistant Staphylococcus aureus (MRSA); assay: as above
How it was run: as §1

[7] = tested on: Moraxella catarrhalis (BCA); assay: as above
How it was run: as §1

[8] = tested on: Streptococcus pneoumoniae (SPN); assay: as above
How it was run: as §1

[9] = tested on: methicillin-sensitive Staphylococcus aureus (MSSA); assay: as above
How it was run: as §1

[10] = tested on: HCT-116 colorectal cancer cell line; assay: CCK-8 proliferation inhibition; conditions: concentration of 30 μM, 72 hours, CCK-8
How it was run: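 Growth inhibition is read by CCK-8 (1:10 dilution) after 72 h of compound exposure. HCT-116 cells grow in McCoy's 5A containing 10% newborn bovine serum at 2000 cells/well, with 1‰ DMSO as vehicle control.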

[11] = tested on: A549 lung cancer cell line; assay: CCK-8 proliferation inhibition; conditions: concentration of 30 μM
How it was run: (§2)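 Plating at 2000 cells/well, then incubation overnight at 37° C. Next, a range of compound concentrations for 72 hours (control 1‰ DMSO). Finally, medium decanted and CCK-8 diluted 1:10 added.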

[12] = tested on: MGC-803 gastric cancer cell line; assay: CCK-8 proliferation inhibition; conditions: Homo sapiens, MGC-803, 72 h, concentration of 30 μM
How it was run: as §2

[13] = tested on: BEL-7402 liver cancer cell line; assay: CCK-8 proliferation inhibition; conditions: concentration of 30 μM
How it was run: as §2

CCCC[C@H](CC(=O)NO)C(=O)N1CC2(CC2)C[C@H]1C(=O)Nc1ccc(F)cn1 [Example 46, (S)—N-(5-fluoropyridin-2-yl)-5-((R)-2-(2-(hydroxyamino)-2-oxoethyl)hexanoyl)-5-spiro[2.4]heptane-6-carboxamide]
1 µg/mL: Anti-bacterial activity (MIC), strain ECO+ 15-4 ([1]; clinical isolate ECO+ 15-4) | Anti-bacterial activity (MIC), strain EFM 15-6 ([2]; clinical isolate EFM 15-6) | Anti-bacterial activity (MIC), strain MSSE 15-3 ([3]; clinical isolate MSSE 15-3) | Anti-bacterial activity (MIC), strain MSSE 15-4 ([3]; clinical isolate MSSE 15-4) | Anti-bacterial activity (MIC), strain MSSE 15-5 ([3]; clinical isolate MSSE 15-5) | Anti-bacterial activity (MIC), strain MSSE 15-6 ([3]; clinical isolate MSSE 15-6) | Anti-bacterial activity (MIC), strain MRSE 15-1 ([4]; clinical isolate MRSE 15-1) | Anti-bacterial activity (MIC), strain MRSE 15-2 ([4]; clinical isolate MRSE 15-2) | Anti-bacterial activity (MIC), strain MRSE 15-3 ([4]; clinical isolate MRSE 15-3) | Anti-bacterial activity (MIC), strain MRSE 15-7 ([4]; clinical isolate MRSE 15-7) | Anti-bacterial activity (MIC), strain MRSA 15-2 ([6]; clinical isolate MRSA 15-2) | Anti-bacterial activity (MIC), strain MRSA 15-3 ([6]; clinical isolate MRSA 15-3) | Anti-bacterial activity (MIC), strain MRSA 15-4 ([6]; clinical isolate MRSA 15-4) | Anti-bacterial activity (MIC), strain BCA 14-1 ([7]; clinical isolate BCA 14-1) | Anti-bacterial activity (MIC), strain BCA 14-4 ([7]; clinical isolate BCA 14-4) | Anti-bacterial activity (MIC), strain BCA 14-7 ([7]; clinical isolate BCA 14-7) | Anti-bacterial activity (MIC), strain BCA 14-8 ([7]; clinical isolate BCA 14-8) | Anti-bacterial activity (MIC), strain MSSA 15-4 ([9]; clinical isolate MSSA 15-4) | Anti-bacterial activity (MIC), strain MSSA 15-5 ([9]; clinical isolate MSSA 15-5)
4 µg/mL: Anti-bacterial activity (MIC), strain EFA 15-9 ([5]; clinical isolate EFA 15-9)
60%: Inhibition of proliferation, Lung cancer A549 ([11]; 72 hours, 30 µM)
> 32 µg/mL: Anti-bacterial activity (MIC), strain ECO+ 15-2 ([1]; clinical isolate ECO+ 15-2) | Anti-bacterial activity (MIC), strain ECO+ 15-3 ([1]; clinical isolate ECO+ 15-3) | Anti-bacterial activity (MIC), strain ECO− 15-1 ([1]; clinical isolate ECO− 15-1) | Anti-bacterial activity (MIC), strain ECO− 15-2 ([1]; clinical isolate ECO− 15-2) | Anti-bacterial activity (MIC), strain ECO− 15-3 ([1]; clinical isolate ECO− 15-3) | Anti-bacterial activity (MIC), strain ECO− 15-4 ([1]; clinical isolate ECO− 15-4) | Anti-bacterial activity (MIC), strain EFM 15-1 ([2]; clinical isolate EFM 15-1) | Anti-bacterial activity (MIC), strain EFM 15-2 ([2]; clinical isolate EFM 15-2) | Anti-bacterial activity (MIC), strain EFM 15-3 ([2]; clinical isolate EFM 15-3) | Anti-bacterial activity (MIC), strain EFM 15-4 ([2]; clinical isolate EFM 15-4) | Anti-bacterial activity (MIC), strain EFA 15-1 ([5]; clinical isolate EFA 15-1) | Anti-bacterial activity (MIC), strain EFA 15-2 ([5]; clinical isolate EFA 15-2) | Anti-bacterial activity (MIC), strain EFA 15-3 ([5]; clinical isolate EFA 15-3) | Anti-bacterial activity (MIC), strain EFA 15-4 ([5]; clinical isolate EFA 15-4) | Anti-bacterial activity (MIC), strain EFA 15-5 ([5]; clinical isolate EFA 15-5) | Anti-bacterial activity (MIC), strain EFA 15-6 ([5]; clinical isolate EFA 15-6) | Anti-bacterial activity (MIC), strain MSSA 15-6 ([9]; clinical isolate MSSA 15-6)
58%: HCT116 inhibition rate/% ([10]; 30 µM)
0.25 µg/mL: Anti-bacterial activity (MIC), strain MRSA 15-1 ([6]; clinical isolate MRSA 15-1) | Anti-bacterial activity (MIC), strain MSSA 15-3 ([9]; clinical isolate MSSA 15-3)
70%: Inhibition of proliferation, Liver cancer BEL-7402 ([13]; 72 hours, 30 µM)
48%: inhibition at 30 µM [12]
0.5 µg/mL: Anti-bacterial activity (MIC), strain EFM 15-5 ([2]; clinical isolate EFM 15-5) | Anti-bacterial activity (MIC), strain BCA 14-5 ([7]; clinical isolate BCA 14-5) | Anti-bacterial activity (MIC), strain BCA 14-6 ([7]; clinical isolate BCA 14-6) | Anti-bacterial activity (MIC), strain BCA 14-10 ([7]; clinical isolate BCA 14-10) | Anti-bacterial activity (MIC), strain SPN 16-2 ([8]; clinical isolate SPN 16-2) | Anti-bacterial activity (MIC), strain SPN 16-4 ([8]; clinical isolate SPN 16-4)
32 µg/mL: Anti-bacterial activity (MIC), strain ECO+ 15-1 ([1]; clinical isolate ECO+ 15-1)
> 50%: inhibition at 30 µM ([10]; Homo sapiens, HCT-116, 72 h, read-out: HCT116 inhibition rate/%) | inhibition at 30 µM ([11]; Homo sapiens, A549, 72 h) | inhibition at 30 µM ([13]; Homo sapiens, Bel-7402, 72 h)
